# Measured values: ChEMBL document CHEMBL1671859, “bla(IMP-4) in different genetic contexts in Enterobacteriaceae isolates from Australia” (2008)
# Assays:
# Format in all cases: functional
# Klebsiella oxytoca [1] = experiment: Antibacterial activity against Klebsiella oxytoca isolate Ko0426 harboring IncL/M plasmid and blaIMP-4-qacG2-aacA4-catB3 array by Etest method
# Citrobacter amalonaticus [2] = experiment: Antibacterial activity against Citrobacter amalonaticus isolate Ca38009 harboring IncL/M plasmid and blaIMP-4-qacG2-aacA4-catB3 array by Etest method
# Morganella morganii [3] = experiment: Antibacterial activity against Morganella morganii isolate Mm1614 harboring IncL/M plasmid and blaIMP-4-qacG2-aacA4-catB3 array by Etest method
# Serratia marcescens [4] = experiment: Antibacterial activity against Serratia marcescens isolate Sm201 harboring IncA/C plasmid and blaIMP-4-qacG2-aacA4-catB3 array by Etest method
# Citrobacter freundii = experiment: Antibacterial activity against Citrobacter freundii isolate Cf1614 harboring IncL/M plasmid and blaIMP-4-qacG2-aacA4-catB3 array by Etest method
# Escherichia coli [5] = experiment: Antibacterial activity against Escherichia coli isolate Ec211 harboring IncA/C plasmid and blaIMP-4-qacG2-aacA4-catB3 array by Etest method
# Acinetobacter baumannii = experiment: Antibacterial activity against Acinetobacter baumannii isolate AbN450 harboring […]-qacG2-aacA4-catB3 array by Etest method
# Serratia marcescens [6] = experiment: Antibacterial activity against Serratia marcescens isolate Sm265 harboring IncA/C plasmid and blaIMP-4-qacG2-aacA4-catB3 array by Etest method
# Citrobacter koseri = experiment: Antibacterial activity against Citrobacter koseri isolate Ck211 harboring IncA/C plasmid and blaIMP-4-qacG2-aacA4-catB3 array by Etest method
# Morganella morganii [7] = experiment: Antibacterial activity against Morganella morganii isolate Mm1229 harboring IncL/M plasmid and blaIMP-4-qacG2-aacA4-catB3 array by Etest method
# Serratia marcescens [8] = experiment: Antibacterial activity against Serratia marcescens isolate Sm203 harboring IncA/C plasmid and blaIMP-4-qacG2-aacA4-catB3 array by Etest method
# Citrobacter youngae = experiment: Antibacterial activity against Citrobacter youngae isolate CyB38 harboring blaIMP-4-qacG2-aacA4-catB3 array by Etest method
# Morganella morganii [9] = experiment: Antibacterial activity against Morganella morganii isolate Mm38009 harboring IncL/M plasmid and blaIMP-4-qacG2-aacA4-catB3 array by Etest method
# Serratia marcescens [10] = experiment: Antibacterial activity against Serratia marcescens isolate Sm211 harboring IncA/C plasmid and blaIMP-4-qacG2-aacA4-catB3 array by Etest method
# Acinetobacter = experiment: Antibacterial activity against Acinetobacter isolate A74510 harboring blaIMP-4-qacG2-aacA4-catB3 array by Etest method
# Serratia marcescens [11] = experiment: Antibacterial activity against Serratia marcescens isolate Sm2723 harboring IncL/M plasmid and blaIMP-4-qacG2-aacA4-catB3 array by Etest method
# Citrobacter amalonaticus [12] = experiment: Antibacterial activity against Citrobacter amalonaticus isolate Ca3927 harboring IncL/M plasmid and blaIMP-4-qacG2-aacA4-catB3 array by Etest method
# Escherichia coli [13] = experiment: Antibacterial activity against Escherichia coli isolate Ec158 harboring IncA/C plasmid and blaIMP-4-qacG2-aacA4-catB3 array by Etest method
# Klebsiella oxytoca [14] = experiment: Antibacterial activity against Klebsiella oxytoca isolate Ko1156 harboring IncL/M plasmid and blaIMP-4-qacG2-aacA4-catB3 array by Etest method
# Klebsiella oxytoca [15] = experiment: Antibacterial activity against Klebsiella oxytoca isolate Ko238 harboring IncA/C plasmid and blaIMP-4-qacG2-aacA4-catB3 array by Etest method
# Serratia marcescens [16] = experiment: Antibacterial activity against Serratia marcescens isolate Sm220 harboring IncA/C plasmid and blaIMP-4-qacG2-aacA4-catB3 array by Etest method
# Citrobacter amalonaticus [17] = experiment: Antibacterial activity against Citrobacter amalonaticus isolate Ca1614 harboring IncL/M plasmid and blaIMP-4-qacG2-aacA4-catB3 array by Etest method
# Escherichia coli [18] = experiment: Antibacterial activity against Escherichia coli isolate Ec221 harboring IncA/C plasmid and blaIMP-4-qacG2-aacA4-catB3 array by Etest method
# Escherichia coli [19] = experiment: Antibacterial activity against Escherichia coli isolate Ec9381 harboring IncL/M plasmid and blaIMP-4-qacG2-aacA4-catB3 array by Etest method
# Klebsiella pneumoniae [20] = experiment: Antibacterial activity against Klebsiella pneumoniae isolate Kp266 harboring IncA/C plasmid and blaIMP-4-qacG2-aacA4-catB3 array by Etest method
# Klebsiella pneumoniae [21] = experiment: Antibacterial activity against Klebsiella pneumoniae isolate Kp38045 harboring IncL/M plasmid and blaIMP-4-qacG2-aacA4-catB3 array by Etest method
# Klebsiella pneumoniae [22] = experiment: Antibacterial activity against Klebsiella pneumoniae isolate Kp7564 harboring IncL/M plasmid and blaIMP-4-qacG2-aacA4-catB3 array by Etest method
# Klebsiella pneumoniae [23] = experiment: Antibacterial activity against Klebsiella pneumoniae isolate Kp149 harboring IncA/C plasmid and blaIMP-4-qacG2-aacA4-catB3 array by Etest method
# Klebsiella pneumoniae [24] = experiment: Antibacterial activity against Klebsiella pneumoniae isolate Kp204 harboring IncA/C plasmid and blaIMP-4-qacG2-aacA4-catB3 array by Etest method
# Klebsiella pneumoniae [25] = experiment: Antibacterial activity against Klebsiella pneumoniae isolate Kp38009 harboring IncL/M plasmid and blaIMP-4-qacG2-aacA4-catB3 array by Etest method
# Klebsiella pneumoniae [26] = experiment: Antibacterial activity against Klebsiella pneumoniae isolate Kp2730 harboring IncL/M plasmid and blaIMP-4-qacG2-aacA4-catB3 and dfrA12-orfF-aadA2 arrays by Etest method
# Klebsiella pneumoniae [27] = experiment: Antibacterial activity against Klebsiella pneumoniae isolate Kp3799 harboring IncL/M plasmid and blaIMP-4-qacG2-aacA4-catB3 array by Etest method
# Klebsiella pneumoniae [28] = experiment: Antibacterial activity against Klebsiella pneumoniae isolate Kp1945 harboring IncL/M plasmid and blaIMP-4-qacG2-aacA4-catB3 and dfrA12-orfF-aadA2 arrays by Etest method
# Klebsiella pneumoniae [29] = experiment: Antibacterial activity against Klebsiella pneumoniae isolate Kp211 harboring IncA/C plasmid and blaIMP-4-qacG2-aacA4-catB3 array by Etest method
# Klebsiella pneumoniae [30] = experiment: Antibacterial activity against Klebsiella pneumoniae isolate Kp4614
# Klebsiella pneumoniae [31] = experiment: Antibacterial activity against Klebsiella pneumoniae isolate Kp1239 harboring IncL/M plasmid and blaIMP-4-qacG2-aacA4-catB3 array by Etest method
smiles,measurement,setting,value
O=C(O)c1cn(C2CC2)c2cc(N3CCNCC3)c(F)cc2c1=O [CIPROFLOXACIN],MIC,Klebsiella oxytoca [1],≤ 0.5 µg/mL
same,MIC,Citrobacter amalonaticus [2],≤ 0.5 µg/mL
same,MIC,Morganella morganii [3],≤ 0.5 µg/mL
same,MIC,Serratia marcescens [4],> 2 µg/mL
same,MIC,Citrobacter freundii,≤ 0.5 µg/mL
same,MIC,Escherichia coli [5],≤ 0.5 µg/mL
same,MIC,Acinetobacter baumannii,> 2 µg/mL
same,MIC,Serratia marcescens [6],≤ 0.5 µg/mL
same,MIC,Citrobacter koseri,≤ 0.5 µg/mL
same,MIC,Morganella morganii [7],≤ 0.5 µg/mL
same,MIC,Serratia marcescens [8],2 µg/mL
same,MIC,Citrobacter youngae,> 2 µg/mL
same,MIC,Morganella morganii [9],≤ 0.5 µg/mL
same,MIC,Serratia marcescens [10],2 µg/mL
same,MIC,Acinetobacter,> 2 µg/mL
same,MIC,Serratia marcescens [11],> 2 µg/mL
same,MIC,Citrobacter amalonaticus [12],≤ 0.5 µg/mL
same,MIC,Escherichia coli [13],≤ 0.5 µg/mL
same,MIC,Klebsiella oxytoca [14],≤ 0.5 µg/mL
same,MIC,Klebsiella oxytoca [15],≤ 0.5 µg/mL
same,MIC,Serratia marcescens [16],2 µg/mL
same,MIC,Citrobacter amalonaticus [17],≤ 0.5 µg/mL
same,MIC,Escherichia coli [18],≤ 0.5 µg/mL
same,MIC,Escherichia coli [19],≤ 0.5 µg/mL
C[C@H]1[C@H](NC(=O)/C(=N\OC(C)(C)C(=O)O)c2csc(N)n2)C(=O)N1S(=O)(=O)O [AZTREONAM],MIC,Klebsiella oxytoca [1],≤ 1 µg/mL
same,MIC,Citrobacter amalonaticus [2],≤ 1 µg/mL
same,MIC,Klebsiella pneumoniae [20],≤ 1 µg/mL
same,MIC,Morganella morganii [3],4 µg/mL
same,MIC,Klebsiella pneumoniae [21],≤ 1 µg/mL
same,MIC,Serratia marcescens [4],≤ 1 µg/mL
same,MIC,Citrobacter freundii,> 16 µg/mL
same,MIC,Escherichia coli [5],≤ 1 µg/mL
same,MIC,Acinetobacter baumannii,> 16 µg/mL
same,MIC,Klebsiella pneumoniae [22],≤ 1 µg/mL
same,MIC,Klebsiella pneumoniae [23],> 16 µg/mL
same,MIC,Serratia marcescens [6],≤ 1 µg/mL
same,MIC,Citrobacter koseri,≤ 1 µg/mL
same,MIC,Klebsiella pneumoniae [24],≤ 1 µg/mL
same,MIC,Klebsiella pneumoniae [25],≤ 1 µg/mL
same,MIC,Klebsiella pneumoniae [26],≤ 1 µg/mL
same,MIC,Morganella morganii [7],≤ 1 µg/mL
same,MIC,Serratia marcescens [8],≤ 1 µg/mL
same,MIC,Citrobacter youngae,≤ 1 µg/mL
same,MIC,Klebsiella pneumoniae [27],≤ 1 µg/mL
same,MIC,Morganella morganii [9],≤ 1 µg/mL
same,MIC,Serratia marcescens [10],≤ 1 µg/mL
same,MIC,Acinetobacter,> 16 µg/mL
same,MIC,Klebsiella pneumoniae [28],≤ 1 µg/mL
same,MIC,Serratia marcescens [11],≤ 1 µg/mL
same,MIC,Klebsiella pneumoniae [29],≤ 1 µg/mL
same,MIC,Citrobacter amalonaticus [12],> 16 µg/mL
same,MIC,Escherichia coli [13],≤ 1 µg/mL
same,MIC,Klebsiella oxytoca [14],≤ 1 µg/mL
same,MIC,Klebsiella oxytoca [15],≤ 1 µg/mL
same,MIC,Serratia marcescens [16],≤ 1 µg/mL
same,MIC,Klebsiella pneumoniae [30],≤ 1 µg/mL
same,MIC,Citrobacter amalonaticus [17],> 16 µg/mL
same,MIC,Escherichia coli [18],≤ 1 µg/mL
same,MIC,Klebsiella pneumoniae [31],≤ 1 µg/mL
same,MIC,Escherichia coli [19],≤ 1 µg/mL
